pIC50: −log10 of the molar value. Where “and” joins values, the source holds several entries; their conditions need not be identical. Equal entries are not always repeated. Structures can show the parent of a compound that is named as a salt.
Experiments:
[1] = tested on: J774A.1 cells; assay: Cytotoxicity, resazurin assay, normal J774A.1 cells; format: cell-based; details: Mus musculus, J774.A1, 48 h, DFO equivalents, read-out: Concentration giving 50% cell viability
[2] = in vitro; details: mouse
Protocol: (§1) Mouse macrophage/monocyte cell line, J774A.1, was purchased from American Type Culture Collection (ATCC). Cells were seeded in 96-well plates at a density of 3,000 cells/well, cultured at 37° C., 5% CO2 with DMEM complete medium (supplemented with 10% (v/v) heat-inactivated FBS, 100 I.U./mL penicillin and 100 μg/mL streptomycin), and allowed to settle for 24 h. Cells were then treated with DFO or oxNG-DFO at equivalent DFO concentrations of 1 mM prepared by 1:3 serial dilutions.
(§2) Cell viability was measured with the metabolism-based resazurin assay. Briefly, the substrate resazurin was dissolved in cell culture medium at a concentration of 44 μM, added to each well (100 μl) and incubated at 37° C. for 4 h. The fluorescence was measured with excitation at 560 nm and emission at 590 nm, on a SpectraMax Gemini EM microplate reader. Readings from the wells without cells were used as Eblank, and the readings from control cells without treatment (Econtrol) represented 100% cell viability. The viability of treated cells at different concentrations can be calculated by the following equation: […]
(§3) Similarly, cytotoxicity was also evaluated in iron-overloaded J774A.1 cells as described above.
(§4) To evaluate the cytotoxicity of the nanogels, cells in complete DMEM medium were treated with equivalent amounts of free DFO or oxNG2-DFO ranging from 0.05-1000 μM and allowed to incubate for 48 h prior to evaluating cytotoxicity with a metabolism-based resazurin assay.

[3] = tested on: iron-overloaded J774A.1 cells; assay: cells; details: Mus musculus, J774.A1, 48 h, read-out: Concentration giving 50% cell viability
Protocol: as §1, §2, §3, §4

[4] = tested on: iron-overloaded J774A.1 cells; assay: Ferritin reduction assay in iron overloaded J774A.1 cells; format: cell-based, mouse; details: for Ferritin decrease: 48 h
Protocol: J774A.1 cells were seeded in 6-well plates at a density of 30,000 cell/well and allowed to settle for 24 h at 37° C., 5% CO2 with DMEM complete medium before treatment. […] Subsequently, cells were washed with PBS and treated with DFO or oxNG-DFO at both 10 μM and 50 μM for 48 h. […] After 48 h incubation with DFO or oxNG-DFO, cells were lysed with cell lysis buffer (150 mM NaCl, 10 mM Tris, 1% Triton X-100 and protease inhibitor cocktail, pH 7.4) and total protein concentration was measured with the BCA protein assay kit. Cellular ferritin concentration was measured with a mouse ferritin ELISA kit. The results are plotted as the ratio of ng of ferritin per μg total protein concentration.
Subsequently, iron-loaded cells were treated for 48 h with 10 μM or 50 μM free DFO or equivalent oxNG2-DFO.

[5] = tested on: Human umbilical vein endothelial cells (HUVEC); assay: Cytotoxicity, resazurin assay, HUVEC; format: cell-based; details: 48 h, DFO equivalents, read-out: Concentration to inhibit 50% cell growth
Protocol: Human umbilical vein endothelial cells (HUVEC) were obtained from Lonza, Inc., and cultured at 37° C./5% CO2 in EGM-2 complete medium. For the cytotoxicity assay, cells were seeded into 96-well plates at a density of 3,000 cell/well and allowed to equilibrate for 2 days before treatment. […] Readings from the wells without cells were used as blanks (Eblank), and the readings taken from control cells without treatment (Econtrol) 1 represented 100% cell viability. The viability of treated cells at each concentration can be calculated by the following equation: Cell Viability=100×(Esample˜Eblank)/(Econtrol˜Eblank)%

With CC(=O)N(O)CCCCCNC(=O)CCC(=O)N(O)CCCCCNC(=O)CCC(=O)N(O)CCCCCN [DFO, Deferoxamine mesylate] as the molecule, how does the pIC50 [1] read?
Its pIC50 is roughly 5.00.

What about the viability at 48 h, 10 μM [2] of the same molecule?
The viability at 48 h, 10 μM was roughly 50%.

And the viability at 48 h, 50 μM [2]?
Its viability at 48 h, 50 μM is less than 50%.

And the pIC50 [3]?
Its pIC50 is roughly 4.82.

What about the Cellular ferritin level [4] of the same molecule?
The Cellular ferritin level was 5.33 ng/μg total protein and 2.84 ng/μg total protein.

And the Ferritin decrease ([4]; 10 μM DFO or equivalent)?
Its Ferritin decrease is 37.4%.

What about the Ferritin decrease ([4]; 50 μM DFO or equivalent) of the same molecule?
The Ferritin decrease was 66.6%.

And the pIC50 [5]?
The pIC50 was roughly 5.70.

For Ferric ammonium citrate [FAC], which “Cellular ferritin expression after iron loading” value [4] is on record?
The value was 8.51 ng/µg.

From patent publication US9968633B2, “Stimuli responsive compositions for iron chelation” (WISCONSIN ALUMNI RESEARCH FOUNDATION, priority 2014, dated 2018)
